According to ChEMBL document CHEMBL3991601, “The target landscape of clinical kinase drugs” (Science, 2017):
Where a name gives a salt, the structure may show the parent alone. Activity calls are given as the source filed them. For most assays here, no stated cut-off is given here; in the data, actives have a measured Kd and inactives only a lower limit.

Legend:
[1] = molecular target: Ribosomal protein S6 kinase alpha-1 (Homo sapiens, UniProt Q15418)
[2] = molecular target: T1, Serine/threonine-protein kinase Nek1 (Homo sapiens, UniProt Q96PY6)
T1 sequence (Q96PY6 whole entry): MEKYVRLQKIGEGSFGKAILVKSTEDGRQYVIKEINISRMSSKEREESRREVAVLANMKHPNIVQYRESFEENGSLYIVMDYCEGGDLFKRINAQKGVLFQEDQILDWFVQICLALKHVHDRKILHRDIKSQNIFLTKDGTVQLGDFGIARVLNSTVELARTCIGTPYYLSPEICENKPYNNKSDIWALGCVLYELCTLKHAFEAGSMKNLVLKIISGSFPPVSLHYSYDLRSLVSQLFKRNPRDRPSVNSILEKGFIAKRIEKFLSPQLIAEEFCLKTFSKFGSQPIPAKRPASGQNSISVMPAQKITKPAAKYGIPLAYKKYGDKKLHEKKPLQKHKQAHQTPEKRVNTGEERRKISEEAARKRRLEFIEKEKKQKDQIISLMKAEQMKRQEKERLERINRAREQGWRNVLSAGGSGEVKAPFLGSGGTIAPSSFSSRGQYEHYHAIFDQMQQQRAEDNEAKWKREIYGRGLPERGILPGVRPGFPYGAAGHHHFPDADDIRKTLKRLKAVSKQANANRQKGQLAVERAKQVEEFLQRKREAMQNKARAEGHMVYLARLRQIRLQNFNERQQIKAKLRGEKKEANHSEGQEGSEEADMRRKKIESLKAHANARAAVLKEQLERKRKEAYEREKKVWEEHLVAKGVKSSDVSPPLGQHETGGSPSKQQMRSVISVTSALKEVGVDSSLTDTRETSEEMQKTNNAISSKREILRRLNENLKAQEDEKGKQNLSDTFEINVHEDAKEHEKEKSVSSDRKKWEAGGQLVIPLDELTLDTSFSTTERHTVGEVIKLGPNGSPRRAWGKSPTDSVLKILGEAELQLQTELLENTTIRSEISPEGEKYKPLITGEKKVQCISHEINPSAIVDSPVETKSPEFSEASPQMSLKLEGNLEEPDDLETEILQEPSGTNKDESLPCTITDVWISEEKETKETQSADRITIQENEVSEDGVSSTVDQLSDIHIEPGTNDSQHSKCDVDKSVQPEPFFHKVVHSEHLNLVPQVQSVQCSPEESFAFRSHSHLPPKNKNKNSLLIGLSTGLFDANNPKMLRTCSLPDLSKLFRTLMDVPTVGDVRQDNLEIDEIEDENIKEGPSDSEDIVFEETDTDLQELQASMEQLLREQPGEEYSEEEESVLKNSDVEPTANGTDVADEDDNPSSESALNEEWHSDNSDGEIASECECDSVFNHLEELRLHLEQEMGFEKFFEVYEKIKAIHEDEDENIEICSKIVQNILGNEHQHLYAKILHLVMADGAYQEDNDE

LIM domain kinase 1 = LIM domain kinase 1 (Homo sapiens, UniProt P53667)
LIM domain kinase 1, sequence (P53667 whole entry, the tested form may be a part): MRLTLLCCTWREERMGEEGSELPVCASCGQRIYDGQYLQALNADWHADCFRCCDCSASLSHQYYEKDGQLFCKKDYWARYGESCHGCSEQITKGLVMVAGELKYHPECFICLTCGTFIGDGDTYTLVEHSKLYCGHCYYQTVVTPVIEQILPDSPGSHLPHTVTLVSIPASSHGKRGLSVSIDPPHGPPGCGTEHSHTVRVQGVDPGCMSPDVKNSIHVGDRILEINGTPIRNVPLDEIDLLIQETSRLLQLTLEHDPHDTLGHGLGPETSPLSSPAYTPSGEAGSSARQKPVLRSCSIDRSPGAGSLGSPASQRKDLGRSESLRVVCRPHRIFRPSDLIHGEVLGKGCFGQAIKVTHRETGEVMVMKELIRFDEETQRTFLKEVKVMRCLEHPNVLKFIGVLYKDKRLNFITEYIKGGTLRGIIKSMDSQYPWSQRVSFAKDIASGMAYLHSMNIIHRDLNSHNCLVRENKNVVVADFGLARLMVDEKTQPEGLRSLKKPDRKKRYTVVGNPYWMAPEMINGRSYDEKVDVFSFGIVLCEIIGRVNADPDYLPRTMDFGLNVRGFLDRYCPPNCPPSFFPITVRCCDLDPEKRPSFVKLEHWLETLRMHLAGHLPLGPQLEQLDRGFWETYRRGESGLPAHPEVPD

[3] = molecular target: T2, Mitogen-activated protein kinase kinase kinase kinase 2 (Homo sapiens, UniProt Q12851)
T2 sequence (Q12851 whole entry): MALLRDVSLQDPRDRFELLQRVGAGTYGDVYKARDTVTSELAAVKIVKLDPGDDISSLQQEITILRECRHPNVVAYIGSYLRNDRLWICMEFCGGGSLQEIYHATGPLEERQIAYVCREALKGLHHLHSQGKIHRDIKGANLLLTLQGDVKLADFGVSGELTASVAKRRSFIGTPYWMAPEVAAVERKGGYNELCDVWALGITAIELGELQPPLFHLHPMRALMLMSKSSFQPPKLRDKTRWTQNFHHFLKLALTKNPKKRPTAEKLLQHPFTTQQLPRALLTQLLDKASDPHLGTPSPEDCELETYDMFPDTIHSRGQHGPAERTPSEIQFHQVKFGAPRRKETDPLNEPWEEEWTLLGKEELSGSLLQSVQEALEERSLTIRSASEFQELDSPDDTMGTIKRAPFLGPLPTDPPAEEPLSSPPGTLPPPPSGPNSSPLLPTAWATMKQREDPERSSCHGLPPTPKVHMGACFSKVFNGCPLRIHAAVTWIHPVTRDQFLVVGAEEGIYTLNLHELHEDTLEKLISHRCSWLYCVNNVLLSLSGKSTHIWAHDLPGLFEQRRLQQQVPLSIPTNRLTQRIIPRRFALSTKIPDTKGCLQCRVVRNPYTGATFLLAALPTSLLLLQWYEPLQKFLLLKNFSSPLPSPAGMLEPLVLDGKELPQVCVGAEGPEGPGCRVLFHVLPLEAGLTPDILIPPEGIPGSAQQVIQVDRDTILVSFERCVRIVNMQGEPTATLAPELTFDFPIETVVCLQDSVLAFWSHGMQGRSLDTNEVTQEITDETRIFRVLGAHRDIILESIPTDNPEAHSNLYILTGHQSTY

[4] = molecular target: Cyclin-dependent kinase 1 (Homo sapiens, UniProt P06493)
Cyclin-dependent kinase 1, sequence (P06493 whole entry): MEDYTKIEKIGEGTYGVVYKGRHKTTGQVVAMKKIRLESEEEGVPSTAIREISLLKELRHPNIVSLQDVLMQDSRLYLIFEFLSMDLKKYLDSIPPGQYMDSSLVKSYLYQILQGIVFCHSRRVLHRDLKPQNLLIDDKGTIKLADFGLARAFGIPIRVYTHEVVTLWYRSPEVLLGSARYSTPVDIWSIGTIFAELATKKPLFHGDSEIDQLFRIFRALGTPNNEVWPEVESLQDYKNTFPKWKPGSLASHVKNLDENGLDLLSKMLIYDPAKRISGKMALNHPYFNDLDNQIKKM

[5] = molecular target: Serine/threonine-protein kinase PAK 4 (Homo sapiens, UniProt O96013)
Serine/threonine-protein kinase PAK 4, sequence (O96013 whole entry): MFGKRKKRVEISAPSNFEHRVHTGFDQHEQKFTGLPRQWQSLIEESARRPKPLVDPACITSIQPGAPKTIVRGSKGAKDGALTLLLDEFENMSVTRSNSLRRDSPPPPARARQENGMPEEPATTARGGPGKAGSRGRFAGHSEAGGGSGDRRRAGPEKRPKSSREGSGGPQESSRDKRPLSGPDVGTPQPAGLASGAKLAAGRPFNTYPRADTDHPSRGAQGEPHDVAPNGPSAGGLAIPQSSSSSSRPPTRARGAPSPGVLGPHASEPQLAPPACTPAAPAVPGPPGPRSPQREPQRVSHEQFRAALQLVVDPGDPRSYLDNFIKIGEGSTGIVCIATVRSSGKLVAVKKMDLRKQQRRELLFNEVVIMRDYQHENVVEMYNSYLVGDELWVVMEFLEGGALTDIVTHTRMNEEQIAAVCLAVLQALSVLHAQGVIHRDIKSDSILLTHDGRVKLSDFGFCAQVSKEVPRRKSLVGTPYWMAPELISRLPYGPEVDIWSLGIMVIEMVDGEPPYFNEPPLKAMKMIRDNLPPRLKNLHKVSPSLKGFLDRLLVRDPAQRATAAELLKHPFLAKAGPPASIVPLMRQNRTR

[6] = molecular target: Calcium/calmodulin-dependent protein kinase type II subunit gamma (Homo sapiens, UniProt Q13555)
Calcium/calmodulin-dependent protein kinase type II subunit gamma, sequence (Q13555 whole entry): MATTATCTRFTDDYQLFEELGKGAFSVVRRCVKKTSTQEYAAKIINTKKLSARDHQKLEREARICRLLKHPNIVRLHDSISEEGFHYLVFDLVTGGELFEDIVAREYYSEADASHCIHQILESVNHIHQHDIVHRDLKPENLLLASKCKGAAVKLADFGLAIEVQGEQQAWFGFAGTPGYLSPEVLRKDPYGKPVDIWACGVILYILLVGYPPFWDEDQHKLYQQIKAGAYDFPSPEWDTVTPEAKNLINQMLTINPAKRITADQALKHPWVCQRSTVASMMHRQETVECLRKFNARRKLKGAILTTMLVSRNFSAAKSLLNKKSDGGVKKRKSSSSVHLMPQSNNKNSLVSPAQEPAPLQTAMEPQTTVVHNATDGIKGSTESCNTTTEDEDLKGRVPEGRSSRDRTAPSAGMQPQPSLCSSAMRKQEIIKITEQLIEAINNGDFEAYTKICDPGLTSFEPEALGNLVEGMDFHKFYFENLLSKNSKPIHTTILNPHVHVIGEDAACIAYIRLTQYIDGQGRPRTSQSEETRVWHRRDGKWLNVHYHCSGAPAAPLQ

Pyridoxal kinase = molecular target: T3, Pyridoxal kinase (Homo sapiens, UniProt O00764)
T3 sequence (O00764 whole entry): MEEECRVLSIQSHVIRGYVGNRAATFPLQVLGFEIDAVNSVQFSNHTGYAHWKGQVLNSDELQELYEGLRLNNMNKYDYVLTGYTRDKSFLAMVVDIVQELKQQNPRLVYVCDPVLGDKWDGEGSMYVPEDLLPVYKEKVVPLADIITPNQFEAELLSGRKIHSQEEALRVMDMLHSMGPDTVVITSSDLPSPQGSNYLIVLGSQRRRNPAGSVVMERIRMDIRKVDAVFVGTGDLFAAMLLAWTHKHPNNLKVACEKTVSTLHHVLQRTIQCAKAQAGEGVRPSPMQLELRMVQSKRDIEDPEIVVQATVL

[7] = molecular target: Elongation factor Tu, mitochondrial (Homo sapiens, UniProt P49411)

Ribosomal protein S6 kinase alpha-1, sequence (Q15418 whole entry): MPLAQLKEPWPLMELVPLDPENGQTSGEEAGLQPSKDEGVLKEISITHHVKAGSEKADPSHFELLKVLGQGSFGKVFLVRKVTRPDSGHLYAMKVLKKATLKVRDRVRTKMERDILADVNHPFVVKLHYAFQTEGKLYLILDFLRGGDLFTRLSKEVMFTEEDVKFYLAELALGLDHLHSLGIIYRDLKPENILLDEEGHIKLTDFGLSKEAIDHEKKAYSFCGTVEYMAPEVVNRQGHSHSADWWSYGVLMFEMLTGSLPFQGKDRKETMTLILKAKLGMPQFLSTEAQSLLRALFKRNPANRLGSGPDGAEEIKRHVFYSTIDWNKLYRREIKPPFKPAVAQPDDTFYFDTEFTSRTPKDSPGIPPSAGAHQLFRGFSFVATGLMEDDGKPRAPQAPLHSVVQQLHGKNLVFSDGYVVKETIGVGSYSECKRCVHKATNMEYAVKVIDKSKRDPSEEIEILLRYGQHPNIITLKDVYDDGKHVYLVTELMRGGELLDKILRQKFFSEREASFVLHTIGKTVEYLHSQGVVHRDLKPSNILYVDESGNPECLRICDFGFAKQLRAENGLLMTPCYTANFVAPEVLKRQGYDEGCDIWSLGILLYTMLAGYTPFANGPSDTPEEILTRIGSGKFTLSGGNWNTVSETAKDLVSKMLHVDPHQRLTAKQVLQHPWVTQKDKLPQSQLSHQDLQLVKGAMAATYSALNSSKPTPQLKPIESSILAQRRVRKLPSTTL

Row | Kd [1] | Kd [2] | Kd (LIM domain kinase 1) | Kd [3] | Kd [4] | Kd [5] | Kd [6] | Kd (Pyridoxal kinase) | Kd [7] | SMILES
1 | > 30 µM (inactive) | > 30 µM (inactive) | > 30 µM (inactive) | > 30 µM (inactive) | > 30 µM (inactive) | > 30 µM (inactive) | > 30 µM (inactive) | > 30 µM (inactive) | > 30 µM (inactive) | NC1(c2ccc(-c3nc4ccn5c(=O)[nH]nc5c4cc3-c3ccccc3)cc2)CCC1 [MK-2206]
2 | > 30 µM (inactive) | > 30 µM (inactive) | > 30 µM (inactive) | > 30 µM (inactive) | > 30 µM (inactive) | > 30 µM (inactive) | > 30 µM (inactive) | > 30 µM (inactive) | > 30 µM (inactive) | CN(C[C@@H]1COCCO1)S(=O)(=O)Nc1ccc2ccc3ncc(-c4cnn(C)c4)cc3c(=O)c2c1 [MK-2461]
3 | > 30 µM (inactive) | > 30 µM (inactive) | > 30 µM (inactive) | > 30 µM (inactive) | > 30 µM (inactive) | > 30 µM (inactive) | > 30 µM (inactive) | > 30 µM (inactive) | > 30 µM (inactive) | Cn1cc(-c2cnc3ccc4ccc(CS(=O)(=O)NCc5ccccn5)cc4c(=O)c3c2)cn1 [MK-8033]

Continued, compound first:

Row | SMILES | Kd [1] | Kd [2] | Kd (LIM domain kinase 1) | Kd [3] | Kd [4] | Kd [5] | Kd [6] | Kd (Pyridoxal kinase) | Kd [7]
4 | CCS(=O)(=O)N1CCN(c2ccc(Nc3ncc(C(N)=O)c(NC4CC4)n3)cc2)CC1 [Cerdulatinib Hydrochloride] | > 30 µM (inactive) | > 30 µM (inactive) | > 30 µM (inactive) | > 30 µM (inactive) | > 30 µM (inactive) | 0.851 µM (active) | > 30 µM (inactive) | > 30 µM (inactive) | > 30 µM (inactive)
5 | Cc1nc2cc(-n3ncc(C(=O)c4cc5ccccc5[nH]4)c3N)ccc2[nH]1 [FGFR INHIBITOR DEBIO 1347] | > 30 µM (inactive) | > 30 µM (inactive) | > 30 µM (inactive) | > 30 µM (inactive) | > 30 µM (inactive) | > 30 µM (inactive) | > 30 µM (inactive) | 2.11 µM (active) | > 30 µM (inactive)
6 | O=C(Nc1nc2cccc(-c3ccc(CN4CCS(=O)(=O)CC4)cc3)n2n1)C1CC1 [FILGOTINIB] | > 30 µM (inactive) | > 30 µM (inactive) | > 30 µM (inactive) | > 30 µM (inactive) | > 30 µM (inactive) | > 30 µM (inactive) | > 30 µM (inactive) | > 30 µM (inactive) | > 30 µM (inactive)
7 | Cc1cccc(-c2nn3c(c2-c2ccnc4ccc(C(N)=O)cc24)CCC3)n1 [GALUNISERTIB] | > 30 µM (inactive) | > 30 µM (inactive) | > 30 µM (inactive) | > 30 µM (inactive) | > 30 µM (inactive) | > 30 µM (inactive) | > 30 µM (inactive) | > 30 µM (inactive) | > 30 µM (inactive)
8 | COc1ccc(S(=O)(=O)N(C(C)=O)c2ccccc2/C=C/c2cc[n+]([O-])cc2)cc1 [HMN-214] | > 30 µM (inactive) | > 30 µM (inactive) | > 30 µM (inactive) | > 30 µM (inactive) | > 30 µM (inactive) | > 30 µM (inactive) | > 30 µM (inactive) | > 30 µM (inactive) | > 30 µM (inactive)
9 | CNC(=O)c1cccc2cc(Oc3ccnc4cc(OCC5(N)CC5)c(OC)cc34)ccc12 [LUCITANIB] | > 30 µM (inactive) | > 30 µM (inactive) | > 30 µM (inactive) | > 30 µM (inactive) | > 30 µM (inactive) | > 30 µM (inactive) | > 30 µM (inactive) | 16.4 µM (active) | > 30 µM (inactive)
10 | CNC(=O)c1nn(C)c2c1C(C)(C)Cc1cnc(Nc3ccc(N4CCN(C)CC4)cc3)nc1-2 [MILCICLIB] | > 30 µM (inactive) | > 30 µM (inactive) | > 30 µM (inactive) | 14 µM (active) | > 30 µM (inactive) | > 30 µM (inactive) | > 30 µM (inactive) | > 30 µM (inactive) | > 30 µM (inactive)
